From PubChem BioAssay AID248 (DTP/NCI, 2004)
Several values for one entry are separate records, joined by “and”; a condition that tells them apart may be missing. Identical values can stand only once. Toxic doses and inconclusive results are not listed. Rule as the data show it: active = T/C of 150% or more; inactive = T/C below 125%.

Tested on: L1210 leukemia ip in BDF1 mice, survival T/C
Experiment: NCI In Vivo Anticancer Drug Screen. Data for tumor model L1210 Leukemia (intraperitoneal) in B6D2F1 (BDF1) mice
Conditions: endpoint: mean survival time, higher = longer survival
In short: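 Value reflects the ratio of survival in compound-treated mice to survival in vehicle-treated controls, with both groups carrying the same transplanted tumor.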

[1] = dose: 100.0 mg/kg/injection, schedule: Q01DX009 (ip), vehicle: saline
[2] = dose: 200.0 mg/kg/injection, schedule: Q01DX009 (ip), vehicle: saline
[3] = dose: 400.0 mg/kg/injection, schedule: Q01DX009 (ip), vehicle: saline
[4] = dose: 100.0 mg/kg/injection, schedule: Q04DX003 (ip), vehicle: saline

Measured: T/C

CCC[CH2][Pb]([Cl])([Cl])[CH2]CCC
inactive: dose: 5.0 mg/kg/injection, schedule: Q01DX001 (ip), vehicle: carboxymethylcellulose (CMC) 95 % of control | dose: 20.0 mg/kg/injection, schedule: Q01DX001 (ip), vehicle: carboxymethylcellulose (CMC) 108 % of control | dose: 40.0 mg/kg/injection, schedule: Q01DX001 (ip), vehicle: carboxymethylcellulose (CMC) 97 % of control | dose: 100.0 mg/kg/injection, schedule: Q01DX001 (ip), vehicle: carboxymethylcellulose (CMC) 103 % of control

O=C(O)C(CCc1ccccc1)N1CCOCC1 (centres undefined)
inactive: [1] 100 % of control | [2] 101 % of control | [3] 103 % of control

CCN=C(N)C(C)SS(=O)(=O)O (centres undefined)
inactive: dose: 100.0 mg/kg/injection, schedule: Q04DX002 (ip), vehicle: saline 106 % of control | dose: 200.0 mg/kg/injection, schedule: Q04DX002 (ip), vehicle: saline 98 % of control

O=C1C(Cl)=C(NC2CCCC2)C(=O)c2ccccc21
inactive: dose: 12.5 mg/kg/injection, schedule: Q01DX001 (ip), vehicle: saline with Tween-80 94 % of control | dose: 25.0 mg/kg/injection, schedule: Q01DX001 (ip), vehicle: saline with Tween-80 94 % of control

CC(N)Cc1ccc2c(c1)OCO2 (centres undefined)
inactive: dose: 6.0 mg/kg/injection, schedule: Q01DX009 (ip), vehicle: saline 104 % of control | dose: 6.25 mg/kg/injection, schedule: Q01DX009 (ip), vehicle: saline 103 % of control | dose: 12.0 mg/kg/injection, schedule: Q01DX009 (ip), vehicle: saline 98 % of control | dose: 12.5 mg/kg/injection, schedule: Q01DX009 (ip), vehicle: saline 93 % of control | dose: 25.0 mg/kg/injection, schedule: Q01DX009 (ip), vehicle: saline 106 % of control and 98 % of control and 102 % of control | dose: 25.0 mg/kg/injection, schedule: Q04DX003 (ip), vehicle: saline 103 % of control and 96 % of control | dose: 50.0 mg/kg/injection, schedule: Q01DX009 (ip), vehicle: saline 108 % of control | dose: 50.0 mg/kg/injection, schedule: Q04DX003 (ip), vehicle: saline 103 % of control and 97 % of control | dose: 100.0 mg/kg/injection, schedule: Q04DX003 (ip), vehicle: Klucel (hydroxypropylcellulose) (HPC) 93 % of control | [4] 110 % of control

O=[N+]([O-])c1cc(Br)cc(Br)c1S(=O)(=O)O
inactive: [1] 105 % of control | [4] 103 % of control | [2] 97 % of control | dose: 200.0 mg/kg/injection, schedule: Q04DX003 (ip), vehicle: saline 110 % of control | [3] 108 % of control | dose: 400.0 mg/kg/injection, schedule: Q04DX003 (ip), vehicle: saline 108 % of control

COc1ccc(C2Nc3ccccc3NC3CC(C)(C)CC(=O)C32)cc1 (centres undefined)
inactive: dose: 100.0 mg/kg/injection, schedule: Q04DX002 (ip), vehicle: Klucel (hydroxypropylcellulose) (HPC) 120 % of control | dose: 200.0 mg/kg/injection, schedule: Q04DX002 (ip), vehicle: Klucel (hydroxypropylcellulose) (HPC) 98 % of control | dose: 400.0 mg/kg/injection, schedule: Q04DX002 (ip), vehicle: Klucel (hydroxypropylcellulose) (HPC) 109 % of control

CC(C(O)c1ccccc1)[N+](=O)[O-] (centres undefined)
inactive: dose: 100.0 mg/kg/injection, schedule: Q04DX003 (ip), vehicle: saline with Tween-80 100 % of control | dose: 200.0 mg/kg/injection, schedule: Q04DX003 (ip), vehicle: saline with Tween-80 95 % of control | dose: 400.0 mg/kg/injection, schedule: Q04DX003 (ip), vehicle: saline with Tween-80 101 % of control

Oc1ccc(CCNCc2ccc3c(c2)OCO3)cc1
inactive: dose: 100.0 mg/kg/injection, schedule: Q01DX001 (ip), vehicle: Klucel (hydroxypropylcellulose) (HPC) 88 % of control | dose: 200.0 mg/kg/injection, schedule: Q01DX001 (ip), vehicle: Klucel (hydroxypropylcellulose) (HPC) 88 % of control | dose: 400.0 mg/kg/injection, schedule: Q01DX001 (ip), vehicle: Klucel (hydroxypropylcellulose) (HPC) 88 % of control

Cn1[nH]cc(/C=N/C(N)=O)c1=O
inactive: dose: 100.0 mg/kg/injection, schedule: Q01DX001 (ip), vehicle: saline 93 % of control | dose: 200.0 mg/kg/injection, schedule: Q01DX001 (ip), vehicle: saline 91 % of control | dose: 400.0 mg/kg/injection, schedule: Q01DX001 (ip), vehicle: saline 87 % of control
